Reference: the NIST ThermoML archive (doi:10.1021/je400803f)
± gives the expanded uncertainty stated by the source.

Assay: xn = mol fraction of the nth substance listed
Conditions: 101 kPa, Liquid, Vibrating tube method

CCCC[N+]1(C)CCCC1.FC(F)(F)C(F)(F)[P-](F)(F)(F)(C(F)(F)C(F)(F)F)C(F)(F)C(F)(F)F + CC(=O)N(C)C
mass density (293.15 K, x1 = 0.0182): 983.51 ± 0.3 kg/m3
mass density (293.15 K, x1 = 0.0658): 1076.12 ± 0.34 kg/m3
mass density (293.15 K, x1 = 0.099): 1128.83 ± 0.36 kg/m3
mass density (293.15 K, x1 = 0.1925): 1243.41 ± 0.44 kg/m3
mass density (293.15 K, x1 = 0.2995): 1334.81 ± 0.52 kg/m3
mass density (293.15 K, x1 = 0.4032): 1399.72 ± 0.58 kg/m3
mass density (293.15 K, x1 = 0.5012): 1446.97 ± 0.62 kg/m3
mass density (293.15 K, x1 = 0.6048): 1487.12 ± 0.66 kg/m3
mass density (293.15 K, x1 = 0.7078): 1520.04 ± 0.69 kg/m3
mass density (293.15 K, x1 = 0.806): 1546.68 ± 0.72 kg/m3
mass density (293.15 K, x1 = 0.8469): 1556.58 ± 0.73 kg/m3
mass density (293.15 K, x1 = 0.9176): 1572.41 ± 0.74 kg/m3
mass density (298.15 K, x1 = 0.0182): 978.8 ± 0.3 kg/m3
mass density (298.15 K, x1 = 0.0658): 1071.23 ± 0.34 kg/m3
mass density (298.15 K, x1 = 0.099): 1123.84 ± 0.35 kg/m3
mass density (298.15 K, x1 = 0.1925): 1238.24 ± 0.44 kg/m3
mass density (298.15 K, x1 = 0.2995): 1329.56 ± 0.52 kg/m3
mass density (298.15 K, x1 = 0.4032): 1394.36 ± 0.57 kg/m3
mass density (298.15 K, x1 = 0.5012): 1441.77 ± 0.62 kg/m3
mass density (298.15 K, x1 = 0.6048): 1482 ± 0.65 kg/m3
mass density (298.15 K, x1 = 0.7078): 1514.92 ± 0.69 kg/m3
mass density (298.15 K, x1 = 0.806): 1541.65 ± 0.71 kg/m3
mass density (298.15 K, x1 = 0.8469): 1551.46 ± 0.72 kg/m3
mass density (298.15 K, x1 = 0.9176): 1567.01 ± 0.74 kg/m3
mass density (303.15 K, x1 = 0.0182): 974.05 ± 0.3 kg/m3
mass density (303.15 K, x1 = 0.0658): 1066.29 ± 0.34 kg/m3
mass density (303.15 K, x1 = 0.099): 1118.81 ± 0.35 kg/m3
mass density (303.15 K, x1 = 0.1925): 1233.05 ± 0.44 kg/m3
mass density (303.15 K, x1 = 0.2995): 1324.29 ± 0.51 kg/m3
mass density (303.15 K, x1 = 0.4032): 1389.05 ± 0.57 kg/m3
mass density (303.15 K, x1 = 0.5012): 1436.59 ± 0.61 kg/m3
mass density (303.15 K, x1 = 0.6048): 1476.86 ± 0.65 kg/m3
mass density (303.15 K, x1 = 0.7078): 1509.86 ± 0.68 kg/m3
mass density (303.15 K, x1 = 0.806): 1536.23 ± 0.71 kg/m3
mass density (303.15 K, x1 = 0.8469): 1546.01 ± 0.72 kg/m3
mass density (303.15 K, x1 = 0.9176): 1561.51 ± 0.73 kg/m3
mass density (308.15 K, x1 = 0.0182): 969.23 ± 0.3 kg/m3
mass density (308.15 K, x1 = 0.0658): 1061.3 ± 0.33 kg/m3
mass density (308.15 K, x1 = 0.099): 1113.75 ± 0.35 kg/m3
mass density (308.15 K, x1 = 0.1925): 1227.86 ± 0.43 kg/m3
mass density (308.15 K, x1 = 0.2995): 1318.96 ± 0.51 kg/m3
mass density (308.15 K, x1 = 0.4032): 1383.7 ± 0.56 kg/m3
mass density (308.15 K, x1 = 0.5012): 1431.01 ± 0.61 kg/m3
mass density (308.15 K, x1 = 0.6048): 1470.97 ± 0.64 kg/m3
mass density (308.15 K, x1 = 0.7078): 1504.04 ± 0.68 kg/m3
mass density (308.15 K, x1 = 0.806): 1530.12 ± 0.7 kg/m3
mass density (308.15 K, x1 = 0.8469): 1539.99 ± 0.71 kg/m3
mass density (308.15 K, x1 = 0.9176): 1555.89 ± 0.73 kg/m3
mass density (313.15 K, x1 = 0.0182): 964.38 ± 0.3 kg/m3
mass density (313.15 K, x1 = 0.0658): 1056.27 ± 0.33 kg/m3
mass density (313.15 K, x1 = 0.099): 1108.63 ± 0.34 kg/m3
mass density (313.15 K, x1 = 0.1925): 1222.59 ± 0.43 kg/m3
mass density (313.15 K, x1 = 0.2995): 1313.61 ± 0.5 kg/m3
mass density (313.15 K, x1 = 0.4032): 1378.3 ± 0.56 kg/m3
mass density (313.15 K, x1 = 0.5012): 1425.38 ± 0.6 kg/m3
mass density (313.15 K, x1 = 0.6048): 1465.48 ± 0.64 kg/m3
mass density (313.15 K, x1 = 0.7078): 1498.52 ± 0.67 kg/m3
mass density (313.15 K, x1 = 0.806): 1524.91 ± 0.7 kg/m3
mass density (313.15 K, x1 = 0.8469): 1534.65 ± 0.71 kg/m3
mass density (313.15 K, x1 = 0.9176): 1550.24 ± 0.72 kg/m3
mass density (318.15 K, x1 = 0.0182): 959.48 ± 0.3 kg/m3
mass density (318.15 K, x1 = 0.0658): 1051.2 ± 0.32 kg/m3
mass density (318.15 K, x1 = 0.099): 1103.46 ± 0.34 kg/m3
mass density (318.15 K, x1 = 0.1925): 1217.27 ± 0.42 kg/m3
mass density (318.15 K, x1 = 0.2995): 1308.22 ± 0.5 kg/m3
mass density (318.15 K, x1 = 0.4032): 1372.86 ± 0.55 kg/m3
mass density (318.15 K, x1 = 0.5012): 1420.2 ± 0.6 kg/m3
mass density (318.15 K, x1 = 0.6048): 1460.22 ± 0.63 kg/m3
mass density (318.15 K, x1 = 0.7078): 1492.71 ± 0.67 kg/m3
mass density (318.15 K, x1 = 0.806): 1519.13 ± 0.69 kg/m3
mass density (318.15 K, x1 = 0.8469): 1528.99 ± 0.7 kg/m3
mass density (318.15 K, x1 = 0.9176): 1544.79 ± 0.72 kg/m3
mass density (323.15 K, x1 = 0.0182): 954.43 ± 0.3 kg/m3
mass density (323.15 K, x1 = 0.0658): 1046.01 ± 0.32 kg/m3
mass density (323.15 K, x1 = 0.099): 1098.22 ± 0.34 kg/m3
mass density (323.15 K, x1 = 0.1925): 1211.86 ± 0.42 kg/m3
mass density (323.15 K, x1 = 0.2995): 1302.76 ± 0.49 kg/m3
mass density (323.15 K, x1 = 0.4032): 1367.34 ± 0.55 kg/m3
mass density (323.15 K, x1 = 0.5012): 1414.53 ± 0.59 kg/m3
mass density (323.15 K, x1 = 0.6048): 1454.65 ± 0.63 kg/m3
mass density (323.15 K, x1 = 0.7078): 1487.58 ± 0.66 kg/m3
mass density (323.15 K, x1 = 0.806): 1513.85 ± 0.69 kg/m3
mass density (323.15 K, x1 = 0.8469): 1523.64 ± 0.7 kg/m3
mass density (323.15 K, x1 = 0.9176): 1539.24 ± 0.71 kg/m3
